Assays:
B16F10 Cell Line = test: Transfection of B16F10 Cell Line with FLuc mRNA LNPs (ONE-Glo EX luciferase signal); assay type: cell-based; details: 200 ng Fluc mRNA-LNP, 24 hours; Table 4
Description: (§1) mRNA encapsulated lipid nanoparticles (mRNA LNPs) were formulated using microfluidic mixing with a PNI Ignite instrument. Briefly, lipids (ionizable: structural: helper: PEG) were dissolved in ethanol and mixed with and aqueous solution of mRNA. These mRNA-loaded dispersions were then neutralized via a buffer exchange with a pre-determined buffer overnight. Afterwards, formed LNPs were concentrated with Amicon filter centrifugation, filtered, concentration of mRNA determined through a ribogreen assay, and frozen at −80° C. until use.
(§2) Cell lines were grown to confluence in T75 flasks using complete media of DMEM-F12 for AML12 and DMEM for both B16F10 and MC38.K. Cells were plated in a white 96 flat-well plate (AML12=20,000 cells/well, B16F10 and MC38.K=5,000 cells/well) with their respected media. Lipid nanoparticles were first diluted to 50 μg/ml using Opti-MEM and pre-incubated with mouse serum for 30 minutes to give an LNP concentration of 8 μg/ml. Cell media was replaced with Opti-MEM and LNPs were added to cells (200 ng of mRNA-LNP), placed back in the incubator, and allowed to transfect for 24 hours. Afterwards, 100 μl of Promega's ONE-Glo™ EX Luciferase Assay System or Promega's CellTiter-Glo® Luminescent Cell Viability Assay was added and mixed in their respective wells, followed by recording luminescence signals on a Thermo Scientific Varioskan LUX multimode microplate reader. The results are shown in FIG. 1, FIG. 2, FIG. 3, FIG. 4, FIG. 5, FIG. 6, FIG. 10, FIG. 11, and FIG. 21.

MC38.K Cell Line = test: Transfection of MC38.K Cell Line with FLuc mRNA LNPs (ONE-Glo EX luciferase signal); assay type: cell-based; details: 200 ng Fluc mRNA-LNP, 24 hours; Table 4
Description: as §1, §2

AML12 Cell Line = test: Transfection of AML12 Cell Line with FLuc mRNA LNPs (ONE-Glo EX luciferase signal); assay type: cell-based; details: 200 ng Fluc mRNA-LNP, 24 hours; Table 4
Description: as §1, §2

Liver = test: Ex-vivo luminescence signal from liver after IV Fluc mRNA LNPs in CD1 mice (IVIS); details: tail vein 1.0 mg/kg Day 0 and Day 2, imaging 18 hours after second dose, Table 4

Structure (SMILES)	Total Luciferin Signal (RLU) In Vitro - B16F10 (B16F10 Cell Line) [RLU]	Total Luciferin Signal (RLU) In Vitro - MC38.K (MC38.K Cell Line) [RLU]	Total Luciferin Signal (RLU) In Vitro - AML12 (AML12 Cell Line) [RLU]	Total Liver Tissue Luciferin Signal (Photons/s) Ex-vivo - CD1 (Liver) [Photons/s]
CCCCCCCCC(CCCCCCCC)OC(=O)CCCCCCCN(CCO)CCCCCCCC(=O)OCCCCCCCCF [Compound 21]	1.03E+05	1.16E+06	4.09E+05	
CCCCC(CCCCCCF)C(=O)OCCCCCCCCN(CCCCO)CCCCCCC(C)C(=O)OCCCCCCCCC(C)C (stereo not drawn) [Compound 88, 8-((4-hydroxybutyl)(7-methyl-8-((9-methyldecyl)oxy)-8-oxooctyl)amino)octyl 2-butyl-8-fluorooctanoate]	9.41E+05	1.24E+07	3.65E+05	
CCCCCCCCC(CCCCCCCC)C(=O)OCCCCCCCN(CCCCCC(=O)OCCCCCCCCC(C)C)CCOC(=O)CCCN(C)C [Compound 7]	1.11E+06	1.35E+06	1.48E+06	
CCCCCCCCCCCOC(=O)CCCCCN(CCO)CCCCCCCC(=O)OC(CCCCCCCC)CCCCCC(C)C (stereo not drawn) [Compound 18]	2.65E+06		2.99E+06	4.74E+09
CCCCCCCCCCCOC(=O)CCCCCN(CCO)CCCCCC(=O)OCCCCCCCCCCC [Compound 49]	9.79E+03	2.99E+04	1.75E+04	
CCCCCCCCC(CCCCCCCC)OC(=O)CCCCCN(CCO)CCCCCC(=O)OC(CCCCCCCC)CCCCCCCC [Compound 51]	1.28E+06	1.70E+06	1.01E+06	
CCCCCCCCCOC(=O)CCCCCCCN(CCO)CCCCCCCC(=O)OCC(CCCCCCCC)CCCCCCCCF (stereo not drawn) [Compound 80, 10-fluoro-2-octyldecyl 8-((2-hydroxyethyl)(8-(nonyloxy)-8-oxooctyl)amino)octanoate]	2.97E+06	1.95E+07	3.01E+06	
CCCCCCCCCOC(=O)CCCCCCCN(CCCCO)CCCCCCCCOC(=O)C(CCCC)CCCCCCF (stereo not drawn) [Compound 81, 8-((4-hydroxybutyl)(8-(nonyloxy)-8-oxooctyl)amino)octyl 2-butyl-8-fluorooctanoate]	5.85E+04	2.47E+06	4.91E+04	
CCCCCCCCCOC(=O)C(C)CCCCCCN(CCCCO)CCCCCCCCOC(=O)C(CCCC)CCCCCCF (stereo not drawn) [Compound 76, 8-((4-hydroxybutyl)(7-methyl-8-(nonyloxy)-8-oxooctyl)amino)octyl 2-butyl-8-fluorooctanoate]	7.14E+04	2.38E+05	3.79E+04	
CCCCCCCCC(CCCCCCCC)OC(=O)CCCCCN(CCCCCC(=O)OCCCCCCCCCCC(C)C)CCOC(=O)CCCN(C)C [Compound 17]	2.64E+06	1.15E+06	6.34E+05	
CCCCCCCCC(CCCCCCCC)OC(=O)CCCCCCCN(CCCCCOC(=O)CCCCCCCCC(C)C)CCOC(=O)CCCN(C)C [Compound 15]	1.97E+06	6.94E+05	1.53E+06	
CCCCCCCCCOC(=O)CCCCCCCN(CCO)CCCCCCCC(=O)OC(CCCCCCCF)CCCCCCCF [Compound 84, 1,15-difluoropentadecan-8-yl 8-((2-hydroxyethyl)(8-(nonyloxy)-8-oxooctyl)amino)octanoate]	8.32E+04	5.52E+05	5.18E+04	
CCCCCCCCC(CCCCCCCCF)C(=O)OCCCCCCCN(CCO)CCCCCCCOC(=O)C(C)CCCCCCCC(C)C (stereo not drawn) [Compound 87, 7-((7-((10-fluoro-2-octyldecanoyl)oxy)heptyl)(2-hydroxyethyl)amino)heptyl 2,10-dimethylundecanoate]	3.16E+06	6.61E+06	1.52E+06	

— patent publication US20260116845A1, “LIPIDS AND COMPOSITIONS THEREOF” (Kernal Biologics, Inc., priority 2023, published 2026)
